{"source": "paper PMC6429159", "about": "“Evolution and Biological Evaluation of Matrinic Derivatives with Amantadine Fragments As New Anti-Influenza Virus Agents” (Molecules, 2019)", "origin": "cited, not measured here", "tested_on": "influenza virus A/hanfang/359/95 (H3N2)", "set-up": "method as in PMID 29473520", "settings": "lead 1, value of previous study; read-out: Anti-H3N2 IC50; cited from earlier work"}
{"smiles": "CCCCC1C2CCCN3CCCC(CN1Cc1ccc(C(=O)O)cc1)C23", "note": "(stereo not shown) [Compound 1, 12N-p-carboxybenzyl matrinic butane]", "values": [{"measurement": "IC50", "value": 16.2, "unit": "µM"}]}
